Source: patent US20060025449A1, “Use of N-substituted imino sugars for appetite suppression” (priority 2004, published 2006)

What was measured:
ob/ob mice = assay: Long-term dietary dosing of obese mice, growth curves; format: in vivo, mouse; conditions: 2400 mg/kg/d in diet
Procedure: Control C57B1/6 and C57BL/6O1aHsd-Lep ob mice were obtained from Harlan, UK at five weeks of age. The mice were housed under standard non-sterile conditions and fed a diet of mouse chow pelleted or expanded ground RM1 diet (SDS Ltd, Witham, Essex) with water available ad libitum. For dietary treatment of the mice with NB-DNJ or NB-DGJ, the diet and compound were admixed thoroughly as dry solids, stored at room temperature and used within 7 days. Unless indicated otherwise, mice were treated with a dose of 2400 mg/kg body weight per day, assuming an intake of around 5 g diet/day. Mice were maintained on diet with or without compound for up to six months of age and were weighed at regular intervals during the course of the experiment (see figure legends for group sizes and further experimental details). To study the effect of compound on obese mice, three groups (n=5) of ob/ob mice were monitored from five weeks of age. One group acted as control and were fed ground RM1 diet. […] All mice were then monitored for up to six months of age. Leptin deficient ob/ob mice are widely used as an animal model of obesity and weigh more than twice as much as a normal mouse, even when fed the same diet. The mice have as much as a five-fold increase in fat content, are hyperphagic, hypothermic, have decreased energy expenditure and are unusually efficient at converting metabolic fuels into fat. Friedman & Halas, Nature 395, 763-70 (1998). These mice were used to investigate the effect of NB-DNJ. […] As NB-DNJ was so effective at reducing white adipose tissue in normal mice, a study was performed to discover if a similar effect would occur in obese mice. […] The control obese mice grew from just over 20 g at five weeks old to about 60 g at six months of age whereas the lean controls had reached about 27 g at the same age. The group of obese mice started on NB-DNJ treatment at 7 weeks old grew at a very much reduced rate and weighed 35 g after six months (40% less than their control littermates). […]

[1] = system: lean control and obese mice; assay: Dietary intake in lean and obese mice (compound in diet or intraperitoneal injection); format: in vivo, mouse
Procedure: Dietary intake of mice on powdered diets was measured on a daily basis, by pre-weighing diet put into the feeding hoppers then weighing remaining diet daily. Diet which the mice had spilt on the floor of the cage, was carefully recovered by sieving and incorporated into the measurements. In order to facilitate measurement of dietary intake, to exclude possible effects of the bitter taste of imino sugar in the diet and also inhibitory effects on disaccharidases in the gastrointestinal tract, groups of control and obese mice five weeks old were given daily intraperitoneal injections of NB-DNJ at a dose equivalent to 2400 mg/kg/day. A further group of obese mice was given daily intraperitoneal injections for two weeks from 10 weeks old. Control mice for each group were injected with an equal volume of isotonic saline vehicle. After assessment of dietary intake over five weeks in controls and three weeks in the obese mice, a restricted diet of 3.2 g/day for controls and 4.0 g/day for the obese mice was provided to compare with the effect of intraperitoneal injection. This equated to a 30% reduction in dietary provision for both groups of mice. […] Platt et al., J Biol Chem 272, 19365-72. This hypothesis was tested by measuring dietary intake in both lean and obese mice fed on both powdered chow with or without imino sugar and with pelleted diet. To exclude any effects of the bitter taste of imino sugars and also as a means to bypass any disaccharidase inhibition in the gut, lean control and obese mice were given daily intraperitoneal injections of NB-DNJ for five and three weeks respectively. Also, a group of obese mice had NB-DNJ mini-pumps implanted and, after four weeks, when the pumps were empty, were then given intraperitoneal injections daily. This delivery route has the advantage that it allows easy assessment of dietary intake, as the mice can eat pelleted diet.

lean control mouse = assay: Single intracerebroventricular (ICV) injection, food intake and weight change after 24 hours; format: in vivo
Procedure: To investigate a central anorexigenic mechanism for weight loss in mice treated with NB-DNJ, single intracerebro-ventricular (ICV) injections were performed. The mice were assessed for food intake and weight change. Mice were anesthetized with isofluorane (4%) delivered by a vaporiser. Upon achievement of a surgical plane of anaesthesia, the animal was transferred to and secured in a Kopf small animal ultra precise stereotaxic instrument (David Kopf Instruments, Tujunga, Calif., USA) fitted with rat ear bars, mouse adaptor and mouse anaesthesia mask. A small amount of lignocaine local anaesthetic gel was applied to the ear bars to reduce any post-operative discomfort. For the remainder of the procedure, anaesthesia was maintained with 2.5% isofluorane. Lacrilube (Allergan Ltd, High Wycombe, UK) was applied to the mouse's eyes and a subcutaneous injection of the non-steroidal anti-inflammatory drug, Rimadyl (Pfizer, Sandwich, Kent, UK) was given for post-operative analgesia. For ICV injections, a small scalpel incision was made along the midline of the scalp from above the eyes to the occiput. A small hole was drilled in the skull, 1 mm lateral and 0.34 mm posterior to Bregma. 1 μl solution was slowly infused into the lateral ventricle at a depth of 2.25 mm, via a glass needle pipette pulled to a thickness of less than 100 microns at the tip. Mice were injected with 2 nmol compound (NB-DNJ, NB-DGJ or 2-deoxy glucose) in isotonic saline vehicle which was injected into controls. The incision was then closed using VetBond acrylic suture fluid (3M Animal Care Products, St Paul, Minn., USA). The whole procedure from induction of anaesthesia to full recovery lasted less than seven minutes. Mice were allowed free access to a pre-weighed quantity of RM1 pellet diet with water provided ad libitum. 24 hours following ICV injection the mice and remaining diet were weighed. To confirm a central anorectic effect of NB-DNJ, 2 nmol NB-DNJ, NB-DGJ and 2 deoxyglucose were injected directly into the lateral cerebral ventricle of lean control mouse brain (approximately 100 μM final cerebro-ventricular concentration). Mice injected with both saline vehicle and NB-DGJ ate a normal quantity of pellet diet in the following 24 hours (FIG. 9), approximately 5% less in this experiment than that seen in control mice in FIG. 7 (not statistically significant). In contrast, NB-DNJ-injected mice ate 20% less (p<0.02 for both saline and NB-DGJ) and 2-deoxy-glucose injections caused a 10% increase in feeding. 2-deoxy-glucose is a mild appetite stimulant in the short-term. Tsutsui et al., Physiol Behav 31, 493-502. In contrast, NB-DGJ had no effect, as expected.

CCCCN1C[C@H](O)[C@@H](O)[C@H](O)[C@H]1CO [NB-DNJ, N-butyldeoxynojirimycin]
body weight of obese mice after six months (ob/ob mice; started at 7 weeks old): 35 g
weight less than control littermates (ob/ob mice; started at 7 weeks old, after six months): 40%
weight at which obese mice stabilised after losing weight (ob/ob mice; started at 12 weeks old, over three months): less than 40 g
reduction in food intake ([1]; all groups of mice, pelleted or powdered diet, 2400 mg/kg/day equivalent): around 30%
eat less than age and sex-matched controls ([1]; intraperitoneally injected mice, 2400 mg/kg/day equivalent): 30%
ate less than untreated controls ([1]; lean and obese groups): up to one third less
ate less than saline- and NB-DGJ-injected mice (lean control mouse; 2 nmol ICV, 24 hours): 20%
weight change (lean control mouse; 2 nmol ICV, 24 hours): significant weight loss
initial hyperphagic response (lean control mouse; first 24 hrs post icv injection): did not cause an initialhyperphagic response
